Laboratory results as given in patent US20130064859A1, “COMBINATORIAL VITAMIN D AND PROBIOTIC THERAPY FOR INFLAMMATORY BOWEL DISEASE” (priority 2011, published 2013).

Assays:
CD4+Foxp3+ T cells = assay: mouse DC / CD4+ T cell co-culture, Foxp3+ Treg induction; assay type: cell-based, mice; settings: FIG. 6B
Method: In a particular example of the method of paragraph, mouse dendritic cells (DCs) are treated with PSA or PSA and vitamin D metabolite for 16-18 hrs, washed and co-cultured with naïve CD4+ T cells. After 4 days, cells were collected and stained for Foxp3. Percentage of Foxp3+ CD4+ T cells were determined by flow cytometry.
(§1) (A) Mouse DCs were stimulated with PSA (or PBS control), and Cyp27b1 transcript levels were measured by qRT-PCR. PSA induces the expression of the vitamin D-activating enzyme from WT, but not TLR2−/− DCs. (B) Mouse DCs were treated with PSA, washed and co-cultured with naïve CD4+ T cells. After 4 days, PSA increased Foxp3+ Treg proportions (see % in box). The vitamin D metabolite 25D augmented PSA-induced Tregs. (C) Human monocytes were treated with PSA or vehicle, washed and co-cultured with CD4+ T cells from PBMCs of the same donor. The MFI for Foxp3 among CD4+CD25+ T cells is shown with or without TGFβ. Collectively, we propose a model whereby PSA signals through TLR2 on DCs to induce expression of Cyp27b1, which converts 25D to 1,25D. The vitamin D receptor (VDR) in T cells responds to 1,25 D, and along with other PSA-specific signals, mediated the development of Treg cells (see diagram in FIG. 1).
(§2) Vitamin D enhances PSA-mediated induction of mouse and human Tregs. […]

[1] = system: Foxp3 expression in human Tregs; assay: human monocyte / CD4+ T cell co-culture, Foxp3 MFI; assay type: cell-based; settings: FIG. 6C
Method: In a particular example of the method of paragraph, in vitro, human monocytes are treated with PSA or vehicle for 16-18 hrs, washed and co-cultured with CD4+ T cells from PBMCs of the same donor with or without TGFb. After 2 days, cells were collected and stained for Foxp3. MFI of Foxp3 among CD4+CD25+ T cells was determined by flow cytometry.
as §1, §2

TNBS colitis = assay: TNBS experimental colitis in mice treated with PSA; assay type: in vivo; settings: for IL-10 expression in MLNs (qRT-PCR) / IL-17 levels in MLNs (qRT-PCR): FIG. 3C
Method: (§3) (A) Mice were treated with PSA or PBS. Analysis of the percentage of Foxp3+ cells within the CD4+CD25+ population in the MLNs is shown, indicated by the numbers in the top right quadrant. (B) CD4+CD25+ cells were purified from the MLNs of colitic PBS or PSA-treated mice and incubated with CFSE-pulsed CD4+CD25-responder cells in an in vitro suppression assay. Numbers indicate the percentage of cells undergoing at least one cellular division at 2 different ratios of effector T cells (Teff) and regulatory T cells (Treg). Top panels show results from healthy mice (−TNBS). (C) Disease scores for mice pre- and post-treated with PSA during TNBS colitis were assessed by a blinded pathologist. P values determined by a two-tailed Mann-Whitney U-test. **p value of <0.01. (D) Colons from mice were fixed, sectioned and stained with H&E to determine disease severity. Representative sections are shown.
(A) C57B1/6 WT or TLR2−/− animals were gavaged with purified PSA (or PBS) prior to TNBS administration. 5-6 days after onset of TNBS colitis, colons of animals were fixed, sectioned and H&E stained. Representative histological sections are shown. […] Each symbol represents a separate animal. *p value of <0.05. NS, not significant. (C) RNA was extracted from the MLNs of indicated mice either treated with PBS or PSA, and the expression levels of IL-10 and IL-17A were assayed by qRT-PCR. (D) Percentages of CD4+CD25+Foxp3+ T cells in the MLNs of TLR2−/−mice treated with PBS or PSA. Plots are gated on CD4+ T cells. Note: PSA increases CD4+CD25+Foxp3+ Treg proportions in WT mice by ˜25%.
B. fragilis induces Tregs that prevent and cure experimental IBD. Maintenance of homeostasis toward the intestinal microbial milieu is critical to the preservation of health, and defects in mucosal tolerance lead to disorders such as IBD. In animal models of IBD, intestinal inflammation is suppressed by various subsets of regulatory T cells (Tregs). Tregs emerge from the thymus and are marked by expression of CD4, CD25 and the transcription factor Foxp3 (Forkhead Box transcription factor for Treg differentiation). We have recently reported that the prominent human commensal, B. fragilis, directs the development of Foxp3+ Tregs in the gut during protection from experimental colitis in animal models. […] The Mazmanian laboratory employs 2 models of experimental colitis: 1) the T cell transfer model whereby various T cell subsets are transferred into RAG−/− animals allowing for the functional study of both pro- and anti-inflammatory T cells; 2) the TNBS (2,4,6-trinitrobenzene sulfonic acid) model, where rectal treatment of animals with an immunogenic chemical results in gut inflammation.
(§4) Here, we present data from the TNBS model, representative of results similar to the T cell transfer model. […] During protection from colitis (TNBS+PSA), PSA increases in-the percentage of Foxp3+ cells within the CD4+CD25+ compartment of the MLNs. […] The suppressive capacity of Tregs during PSA-mediated protection from intestinal inflammation was determined by in vitro suppression assays.
To examine if PSA can prevent and cure established colitis, animals were induced for TNBS colitis, and groups were either treated with vehicle (TNBS+PBS) or PSA either: 1) prior to disease induction (pre-TNBS+PSA) or 2) following rectal TNBS administration (post-TNBS+PSA).
PSA protection from experimental IBD requires TLR2 signaling. Multiple studies have implicated TLR signaling by innate immune cells during inflammatory disease. […] Wild-type (WT) or TLR2−/− animals were orally treated with PSA or PBS prior to induction of TNBS colitis. […] In contrast, TLR2−/− mice treated with PSA had marked inflammation including thickening of the mucosa, infiltrating leukocytes and crypt loss (FIG. 3A). […] As previously reported, WT animals were protected from colitis by PSA.

[2] = system: proliferation of CD4+CD25- responder T cells; assay: in vitro suppression assay with CD4+CD25+ Tregs from MLNs of treated mice; assay type: cell-based; settings: Tregs from PSA fed mice (TNBS+PSA) vs untreated animals, FIG. 2B
Method: as §3, §4

Cyp27b1 = assay: qRT-PCR of Cyp27b1 in bone marrow-derived dendritic cells treated with PSA; assay type: cell-based, mice; settings: FIG. 6A
Method: as §1
Vitamin D enhances PSA-mediated induction of mouse and human Tregs. As outlined above, the ability of PSA to protect against IBD in mice involves the gut-specific conversion of CD4+ cell into IL-10-secreting Foxp3+ Tregs. We hypothesize that vitamin D may play a pivotal role in this process, given our novel finding that PSA induces the vitamin D-activating machinery in mice (see FIG. 5C). […]

[3] = PSA following the onset of disease, data not shown

25-hydroxyvitamin D [25D, reference compound]
effect on PSA-induced increase of CD4+Foxp3+ T cells (CD4+Foxp3+ T cells; co-treatment of WT BMDCs with PSA and 25D): further enhanced

TGFβ [reference compound]
effect on PSA-induced Tregs ([1]; co-culture with or without TGFβ): does not further enhance

polysaccharide A [PSA]
colitis disease score (TNBS colitis; PSA following rectal TNBS administration (post-TNBS+PSA)): prevented the development of disease with equal efficacy | Foxp3 expression by gut CD4+ T cells (TNBS colitis; [3]): increased | IL-10 expression by gut CD4+ T cells (TNBS colitis; [3]): increased | colitis disease score (TNBS colitis; PSA prior to disease induction (pre-TNBS+PSA)): prevented the development of disease with equal efficacy | absolute number of CD4+CD25+Foxp3+ cells in the MLNs (TNBS colitis; PSA-treated vs PBS or non-colitic animals, data not shown): significantly higher | IL-10 expression in MLNs (qRT-PCR) (TNBS colitis; TLR2-/- animals): no longer up-regulated | protection from colitis (colitis score) (TNBS colitis; TLR2-/- animals, oral PSA prior to TNBS vs PBS, FIG. 3B): not protected | percentage of CD4+Foxp3+ Tregs (TNBS colitis; TLR2-/- animals, relative to PBS controls, FIG. 3D): no differences | IL-17 levels in MLNs (qRT-PCR) (TNBS colitis; TLR2-/- mice, PSA compared to PBS): increased | percentage of Foxp3+ cells within the CD4+CD25+ compartment of the MLNs (TNBS colitis; TNBS+PSA vs TNBS+PBS, FIG. 2A): increases | IL-10 expression in MLNs (qRT-PCR) (TNBS colitis; WT animals): induced | IL-17 levels in MLNs (qRT-PCR) (TNBS colitis; WT animals): Suppression | protection from colitis (histopathology, colitis score) (TNBS colitis; WT animals, oral PSA prior to TNBS, FIG. 3A/B): protected from disease | increase of CD4+CD25+Foxp3+ Treg proportions (TNBS colitis; WT mice, MLNs, FIG. 3 note): ~25% | pro-inflammatory Th17 cells (TNBS colitis; during both protection and cure of colitis, data not shown): significant decrease | suppression of T cell proliferation by Tregs from MLNs [2]: suppressed T cell proliferation to a significantly higher level | induction of Cyp27b1 expression (Cyp27b1; DCs from TLR2-/- mice): greatly diminished | induction of Cyp27b1 expression (Cyp27b1; WT BMDC, PSA vs PBS control): 5 fold | proportions of CD4+Foxp3+ T cells in culture (CD4+Foxp3+ T cells; WT BMDCs treated with PSA, over media controls): increases | Foxp3 expression in human Tregs (MFI among CD4+CD25+ T cells) ([1]; human monocytes treated with purified PSA or vehicle): promotes Foxp3 expression
